Consider 21 compounds from ChEMBL document CHEMBL3102753, “7-Azaindole-1-carboxamides as a new class of PARP-1 inhibitors” (Bioorg Med Chem, 2014).

By IC50 is commonly meant the midpoint of a concentration-inhibition curve. A word on the EC50: it is the concentration at which the effect is half-maximal.

One data set deals with HCC1937. The data set can be described thus: Antiproliferative activity against BRCA1 gene mutated human HCC1937 cells after 72 hrs by SRB assay. The class given is functional, cell-based.
The target in data set [1] is T1, Poly [ADP-ribose] polymerase 1 (Homo sapiens, UniProt P09874). The data set can be described thus: Inhibition of recombinant human GST-fused PARP-1 expressed in Escherichia coli after 30 mins by fluorescence assay.
T1 sequence (P09874 whole entry, the tested form may be a part): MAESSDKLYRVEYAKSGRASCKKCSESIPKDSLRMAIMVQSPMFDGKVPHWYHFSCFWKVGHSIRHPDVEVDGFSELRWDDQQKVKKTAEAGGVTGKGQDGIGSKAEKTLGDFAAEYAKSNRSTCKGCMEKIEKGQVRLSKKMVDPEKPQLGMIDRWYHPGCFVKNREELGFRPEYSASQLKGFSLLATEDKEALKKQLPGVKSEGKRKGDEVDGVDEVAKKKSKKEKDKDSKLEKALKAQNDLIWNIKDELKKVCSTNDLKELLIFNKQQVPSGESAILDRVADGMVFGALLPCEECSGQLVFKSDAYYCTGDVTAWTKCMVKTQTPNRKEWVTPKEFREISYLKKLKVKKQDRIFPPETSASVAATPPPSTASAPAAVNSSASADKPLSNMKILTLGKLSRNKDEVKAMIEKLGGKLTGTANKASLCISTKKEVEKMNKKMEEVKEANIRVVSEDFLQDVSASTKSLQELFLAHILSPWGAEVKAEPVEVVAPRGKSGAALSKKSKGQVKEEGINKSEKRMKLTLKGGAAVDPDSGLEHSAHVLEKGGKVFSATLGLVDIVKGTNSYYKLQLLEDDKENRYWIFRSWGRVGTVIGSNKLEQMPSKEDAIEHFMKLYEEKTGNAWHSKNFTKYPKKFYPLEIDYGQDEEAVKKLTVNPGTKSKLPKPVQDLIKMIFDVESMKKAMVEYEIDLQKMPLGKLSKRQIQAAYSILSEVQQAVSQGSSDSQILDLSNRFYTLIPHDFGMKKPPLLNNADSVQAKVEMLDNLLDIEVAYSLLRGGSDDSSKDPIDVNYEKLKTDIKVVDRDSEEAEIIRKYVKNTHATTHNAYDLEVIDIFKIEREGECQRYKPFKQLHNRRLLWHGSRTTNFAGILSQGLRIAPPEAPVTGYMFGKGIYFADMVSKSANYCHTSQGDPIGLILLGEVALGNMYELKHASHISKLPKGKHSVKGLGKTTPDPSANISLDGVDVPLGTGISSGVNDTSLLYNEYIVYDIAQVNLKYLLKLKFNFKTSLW
A short description of data set [2]: Antiproliferative activity against BRCA2 gene mutated human Capan1 cells after 72 hrs by cell counting. As to conditions: CAPAN-1, 72 h.
For data set [3], the system named is Mus musculus. The data set is described as follows: Toxicity in human MX1 cells harboring BRCA1 deletion and BRCA2 mutant xenografted SCID mouse assessed as mortality at 100 mg/kg, ip administered every 2 days for 2 weeks measured on day 38 relative to control. The class given is organism-based. Also on record: dose 100 mg/kg, route intraperitoneal. As to conditions: in vivo. In general terms: A xenograft is tissue or cells of one species grown in another, often human tumour cells in immunodeficient mice.

Data set [4] has as its system Mus musculus. The data set can be described thus: Toxicity in human MX1 cells harboring BRCA1 deletion and BRCA2 mutant xenografted SCID mouse assessed as reduction of body weight at 100 mg/kg, ip administered every 2 days for 2 weeks measured on day 38 relative to control. Further details: dose 100 mg/kg, route intraperitoneal; scale not given: the % may be the effect or the level left. The class given is organism-based. Conditions: in vivo.

For data set [5], the system named is MX1. The data set is described as follows: Antitumor activity against human MX1 cells harboring BRCA1 deletion and BRCA2 mutant xenografted in SCID mouse assessed as reduction of tumor volume at 100 mg/kg, ip administered every 2 days for 2 weeks measured on day 38 relative to control. Also on record: scale not given: the % may be the effect or the level left. The class given is functional. As to conditions: route intraperitoneal.

The target of data set [6] is T1, Poly [ADP-ribose] polymerase 1. The data set can be described thus: Inhibition of PARP-1 in human HeLa cells assessed as decrease of H2O2-induced PARylation after 3 hrs by fluorescence assay. The class given is cell-based.
Data set [7] has as its system A2780. The data set is described as follows: Resistant factor, ratio of IC50 for human A2780/DX cells to IC50 for human A2780 cells. The class given is functional.
The nature of data set [8]: Antiproliferative activity against human A2780/DX cells after 72 hrs by SRB assay. The data set is classed as functional, cell-based. A general note: Sulforhodamine B stains cellular protein and so reports cell mass.
For data set [9], the system named is A2780. The data set is described as follows: Antiproliferative activity against human A2780 cells after 72 hrs by SRB assay. The class given is functional, cell-based. As to conditions: A2780, 72 h.
The test system of data set [10] is Mus musculus. The data set is described as follows: Toxicity in human MX1 cells harboring BRCA1 deletion and BRCA2 mutant xenografted SCID mouse assessed as mortality at 167 mg/kg, ip administered every 2 days for 2 weeks measured on day 38 relative to control. The data set is classed as organism-based. Also on record: dose 167 mg/kg, route intraperitoneal. Conditions: in vivo.

Data set [11] deals with Mus musculus. The data set can be described thus: Toxicity in human MX1 cells harboring BRCA1 deletion and BRCA2 mutant xenografted SCID mouse assessed as reduction of body weight at 167 mg/kg, ip administered every 2 days for 2 weeks measured on day 38 relative to control. Conditions: in vivo. Further details: dose 167 mg/kg, route intraperitoneal; scale not given: the % may be the effect or the level left. The class given is organism-based.

In data set [12] the test system is MX1. The data set is described as follows: Antitumor activity against human MX1 cells harboring BRCA1 deletion and BRCA2 mutant xenografted in SCID mouse assessed as reduction of tumor volume at 167 mg/kg, ip administered every 2 days for 2 weeks measured on day 38 relative to control. Conditions: route intraperitoneal. Also on record: scale not given: the % may be the effect or the level left. The class given is functional.

Data set [13] in a line: Antiproliferative activity against BRCA2 gene mutated human Capan1 cells after 72 hrs by SRB assay. Conditions: capan-1. The data set is classed as functional, cell-based.
[14] abbreviates: Homo sapiens, HCC1937, 72 h, read-out: IC50.

The structures appear in SMILES notation. A value given as a limit tells only on which side of the number the result lay.

With `NC(=O)n1ccc2cccnc21`, the half-maximal inhibitory concentration (IC50) in the data set on HCC1937 (setting [14]) is greater than 200 µM; in data set [1] it was 2.5 µM; in data set [2] it was greater than 200 µM.
For `NC(=O)n1ccc2ccc(-c3ccccc3)nc21`, the results for the IC50 (with HCC1937 (setting [14]); in data set [1]; in data set [2]) were greater than 200 µM, 0.27 µM and greater than 200 µM, respectively.
As to `COc1ccc(-c2ccc3ccn(C(N)=O)c3n2)cc1`, the IC50 with HCC1937 (setting [14]) was greater than 200 µM; in [1] it was 3.76 µM; in [2], 162 µM.
For `CN(C)c1ccc(-c2ccc3ccn(C(N)=O)c3n2)cc1` the same measures were greater than 200 µM, 0.88 µM and greater than 200 µM.
Turning to `NC(=O)n1ccc2ccc(-c3ccc(F)cc3)nc21`, the concentration for half-maximal inhibition (IC50) in the data set on HCC1937 (setting [14]) is greater than 200 µM; in data set [1] it was 0.27 µM; in data set [2], 61.1 µM.
For `NC(=O)n1ccc2ccc(-c3ccc(-c4ccccc4)cc3)nc21` the same measures were greater than 200 µM, greater than 5 µM and 81.8 µM.
As for `NC(=O)n1ccc2ccc(-c3ccccc3F)nc21`, the IC50 in [1] turned out to be 3 µM.
Turning to `NC(=O)n1ccc2ccc(-c3ccc(F)c(C(=O)N4CCN(C(=O)C5CC5)CC4)c3)nc21`, the IC50 in data set [1] was determined as 1.12 µM.
`NC(=O)n1ccc2ccc(-c3ccc[nH]3)nc21`: the results for the IC50 (in the data set on HCC1937 (setting [14]); in data set [1]; in data set [2]) were 61.4 µM, 0.93 µM and 87.1 µM, respectively.
Turning to `NC(=O)n1ccc2ccc(-c3ccc(C(=O)N4CCCCC4)cc3)nc21`, the results for the IC50 (in the data set with HCC1937 (setting [14]); in [1]; in data set [2]) were 72.3 µM, 2.9 µM and 24.4 µM, respectively.
For `NC(=O)n1ccc2ccc(-c3ccc(CN4CCOCC4)cc3)nc21`, the concentration for half-maximal inhibition (IC50) in the data set with HCC1937 (setting [14]) was determined as 17.2 µM; in [1], 2.1 µM; in data set [2], 15.9 µM.
Regarding `NC(=O)n1ccc2ccc(-c3ccc(CN4CCCCC4)cc3)nc21`, the Activity result in the data set with Mus musculus [3] is on record as “Non-toxic”; in the data set on Mus musculus [4], 1%; in the data set on MX1 [5], 36%. The concentration giving a half-maximal response (EC50) in [6] stood at 0.4 µM. Besides, the “Ratio IC50” value in the data set with A2780 [7] worked out at 3.9. For the same compound, the concentration for half-maximal inhibition (IC50) in data set [8] was 11.2 µM; with A2780 [9] it was 2.9 µM; in the data set with HCC1937 (setting [14]) it was 19.4 µM; in data set [1], 0.07 µM; in data set [2], 22 µM.
As for `CN1CCN(Cc2ccc(-c3ccc4ccn(C(N)=O)c4n3)cc2)CC1`, the IC50 in the data set with HCC1937 (setting [14]) was 41.2 µM; in [1], 1.56 µM; in data set [2] it was 54.5 µM.
With `NC(=O)n1ccc2ccc(-c3ccc(CN4CCCC4)cc3)nc21`, the figures for the half-maximal inhibitory concentration (IC50) (with HCC1937 (setting [14]); in data set [1]; in data set [2]) were 15 µM, 0.28 µM and 21.7 µM, respectively.
For the compound `CN(C)Cc1ccc(-c2ccc3ccn(C(N)=O)c3n2)cc1`, the IC50 with HCC1937 (setting [14]) worked out at 13.5 µM; in [1], 0.63 µM; in [2] it was 19.7 µM.
For `NC(=O)n1ccc2ccc(N3CCCC3)nc21` the same measures were greater than 200 µM, 0.22 µM and 83.8 µM.
In the case of `CN1CCN(c2ccc3ccn(C(N)=O)c3n2)CC1`, the IC50 in the data set on HCC1937 (setting [14]) came to 111 µM; in data set [1], 0.77 µM; in [2], 138 µM.
For the compound `NC(=O)n1ccc2ccc(N3CCCCC3)nc21`, in data set [1], the IC50 amounted to 3 µM.
With `NC(=O)Cn1ccc2ccc(-c3ccc(CN4CCCC4)cc3)nc21`, the concentration for half-maximal inhibition (IC50) is 182 µM in the data set on HCC1937 (setting [14]), greater than 5 µM in data set [1] and 182 µM in data set [2].
For `O=C(c1cc(Cc2n[nH]c(=O)c3ccccc23)ccc1F)N1CCN(C(=O)C2CC2)CC1` [OLAPARIB], the Activity entry was “Non-toxic” in the data set on Mus musculus [10], 0% with Mus musculus [11] and 35% in the data set with MX1 [12]. In addition, the IC50 in data set [8] is 41.9 µM; in the data set with A2780 [9], 1 µM; in the data set on HCC1937 (Homo sapiens, HCC1937, 72 h) it was 10.3 µM; in data set [2], 6.3 µM.
For `C[C@]1(c2nc3c(C(N)=O)cccc3[nH]2)CCCN1` [VELIPARIB], the half-maximal inhibitory concentration (IC50) stood at 39.7 µM in data set [13] and 97.2 µM with HCC1937 (hcc1937, read-out: IC50).
